Values after ≈ are worked out from the molar mass of the structure shown. Active and inactive are the calls of the source. No cut-off for these calls is given here.
Experiments:
Staphylococcus aureus [1] = assay: Antibacterial activity against methicillin-resistant Staphylococcus aureus NRS 192 assessed as reduction in bacterial growth measured after 18 to 24 hrs by broth microdilution method; assay type: functional; details: time 18-24 hrs
Acinetobacter baumannii = assay: Antibacterial activity against Acinetobacter baumannii BAA 1605 assessed as reduction in bacterial growth measured after 18 to 24 hrs by broth microdilution method; assay type: functional; details: time 18-24 hrs
Staphylococcus aureus [2] = assay: Inhibition of biofilm in Staphylococcus aureus ATCC 29213 at 0.5 times MIC measured after 12 hrs by crystal violet staining based analysis relative to control; assay type: functional
Staphylococcus aureus [3] = assay: Antibacterial activity against vacomycin-resistant Staphylococcus aureus VRS 4 assessed as reduction in bacterial growth measured after 18 to 24 hrs by broth microdilution method; assay type: functional; details: time 18-24 hrs
Staphylococcus aureus [4] = assay: Antibacterial activity against methicillin-resistant Staphylococcus aureus NRS 129 assessed as reduction in bacterial growth measured after 18 to 24 hrs by broth microdilution method; assay type: functional; details: time 18-24 hrs
Staphylococcus aureus [5] = assay: Antibacterial activity against methicillin-resistant Staphylococcus aureus NRS 119 assessed as reduction in bacterial growth measured after 18 to 24 hrs by broth microdilution method; assay type: functional; details: time 18-24 hrs
Staphylococcus aureus [6] = assay: Antibacterial activity against methicillin-sensitive Staphylococcus aureus ATCC 29213 assessed as reduction in bacterial growth measured after 18 to 24 hrs by broth microdilution method; assay type: functional; details: time 18-24 hrs
Staphylococcus aureus [7] = assay: Antibacterial activity against methicillin-resistant Staphylococcus aureus NRS 191 assessed as reduction in bacterial growth measured after 18 to 24 hrs by broth microdilution method; assay type: functional; details: time 18-24 hrs
Staphylococcus aureus [8] = assay: Inhibition of biofilm in Staphylococcus aureus ATCC 29213 at 2 times MIC measured after 12 hrs by crystal violet staining based analysis relative to control; assay type: functional
Enterococcus faecalis = assay: Antibacterial activity against Enterococcus faecalis ATCC 35550 assessed as reduction in bacterial growth measured after 18 to 24 hrs by broth microdilution method; assay type: functional; details: time 18-24 hrs
Staphylococcus aureus [9] = assay: Antibacterial activity against methicillin-resistant Staphylococcus aureus NRS 193 assessed as reduction in bacterial growth measured after 18 to 24 hrs by broth microdilution method; assay type: functional; details: time 18-24 hrs
Staphylococcus aureus [10] = assay: Antibacterial activity against Staphylococcus aureus ATCC 29213 assessed as reduction in bacterial growth measured after 18 to 24 hrs by broth microdilution method; assay type: functional; details: time 18-24 hrs
Staphylococcus aureus [11] = assay: Antibacterial activity against vacomycin-resistant Staphylococcus aureus VRS 1 assessed as reduction in bacterial growth measured after 18 to 24 hrs by broth microdilution method; assay type: functional; details: time 18-24 hrs
Klebsiella pneumoniae = assay: Antibacterial activity against Klebsiella pneumoniae BAA 1705 assessed as reduction in bacterial growth measured after 18 to 24 hrs by broth microdilution method; assay type: functional; details: time 18-24 hrs
Staphylococcus aureus [12] = assay: Antibacterial activity against methicillin-resistant Staphylococcus aureus NRS 194 assessed as reduction in bacterial growth measured after 18 to 24 hrs by broth microdilution method; assay type: functional; details: time 18-24 hrs
Bacillus subtilis = assay: Antibacterial activity against Bacillus subtilis IITKSM1 assessed as reduction in bacterial growth measured after 18 to 24 hrs by broth microdilution method; assay type: functional; details: time 18-24 hrs
Staphylococcus aureus [13] = assay: Antibacterial activity against methicillin-resistant Staphylococcus aureus NRS 198 assessed as reduction in bacterial growth measured after 18 to 24 hrs by broth microdilution method; assay type: functional; details: time 18-24 hrs
Escherichia coli = assay: Antibacterial activity against Escherichia coli ATCC 25922 assessed as reduction in bacterial growth measured after 18 to 24 hrs by broth microdilution method; assay type: functional; details: time 18-24 hrs
Staphylococcus aureus [14] = assay: Antibacterial activity against methicillin-resistant Staphylococcus aureus NRS 186 assessed as reduction in bacterial growth measured after 18 to 24 hrs by broth microdilution method; assay type: functional; details: time 18-24 hrs
Staphylococcus aureus [15] = assay: Antibacterial activity against methicillin-resistant Staphylococcus aureus NRS 100 assessed as reduction in bacterial growth measured after 18 to 24 hrs by broth microdilution method; assay type: functional; details: time 18-24 hrs
Pseudomonas aeruginosa = assay: Antibacterial activity against Pseudomonas aeruginosa ATCC 27853 assessed as reduction in bacterial growth measured after 18 to 24 hrs by broth microdilution method; assay type: functional; details: time 18-24 hrs
Staphylococcus aureus [16] = assay: Inhibition of biofilm in Staphylococcus aureus ATCC 29213 at 2 ug/ml measured after 12 hrs by crystal violet staining based analysis; assay type: functional, organism-based; details: dose 2.0 µg/ml
Staphylococcus aureus [17] = assay: Antibacterial activity against vacomycin-resistant Staphylococcus aureus VRS 12 assessed as reduction in bacterial growth measured after 18 to 24 hrs by broth microdilution method; assay type: functional; details: time 18-24 hrs
Staphylococcus aureus [18] = assay: Inhibition of biofilm in Staphylococcus aureus ATCC 29213 at 1 times MIC measured after 12 hrs by crystal violet staining based analysis relative to control; assay type: functional
Staphylococcus aureus [19] = assay: Antibacterial activity against Staphylococcus aureus assessed as reduction in bacterial growth; assay type: functional
Staphylococcus aureus [20] = assay: Bactericidal activity against Staphylococcus aureus ATCC 29213 at 4 to 8 time MIC measured after 8 hrs by time-kill assay; assay type: functional, organism-based

Structure (SMILES)	MIC (Staphylococcus aureus [1])	MIC (Staphylococcus aureus [3])	MIC (Staphylococcus aureus [4])	MIC (Staphylococcus aureus [5])	MIC (Staphylococcus aureus [6])	MIC (Staphylococcus aureus [7])	MIC (Staphylococcus aureus [9])	MIC (Staphylococcus aureus [11])	MIC (Staphylococcus aureus [12])	MIC (Staphylococcus aureus [13])	MIC (Staphylococcus aureus [14])	MIC (Staphylococcus aureus [15])	MIC (Staphylococcus aureus [17])	MIC (Staphylococcus aureus [19])	further results
O=C(O)c1cccc(C(=O)Nc2c(C(c3ccccc3)c3ccccc3)cc(Cl)cc2C(c2ccccc2)c2ccccc2)c1	4 µg/mL (≈ 6.58 µM)	4 µg/mL (≈ 6.58 µM)	4 µg/mL (≈ 6.58 µM)	4 µg/mL (≈ 6.58 µM)	4 µg/mL (≈ 6.58 µM)	4 µg/mL (≈ 6.58 µM)	8 µg/mL (≈ 13.2 µM)	4 µg/mL (≈ 6.58 µM)	8 µg/mL (≈ 13.2 µM)	8 µg/mL (≈ 13.2 µM)	4 µg/mL (≈ 6.58 µM)	4 µg/mL (≈ 6.58 µM)	4 µg/mL (≈ 6.58 µM)	–	MIC (Acinetobacter baumannii): > 64 µg/mL; inhibition (INH) (Staphylococcus aureus [2]): >50%; inhibition (INH) (Staphylococcus aureus [8]): 95%; MIC (Enterococcus faecalis): 1 µg/mL (≈ 1.64 µM); MIC (Staphylococcus aureus [10]): 2 µg/mL (≈ 3.29 µM); MIC (Klebsiella pneumoniae): > 64 µg/mL; MIC (Bacillus subtilis): 2 µg/mL (≈ 3.29 µM); MIC (Escherichia coli): > 64 µg/mL; MIC (Pseudomonas aeruginosa): > 64 µg/mL; inhibition (Staphylococcus aureus [16]): Active; inhibition (INH) (Staphylococcus aureus [18]): 96%
N=C(N)NCCC[C@H](NC(=O)[C@H](CCCNC(=N)N)NC(=O)[C@H](CCCNC(=N)N)NC(=O)Cn1cc(COc2ccccc2-c2ccc(-c3ccc(-c4ccccc4OCc4cn(CC(=O)N[C@@H](CCCNC(=N)N)C(=O)N[C@@H](CCCNC(=N)N)C(=O)N[C@@H](CCCNC(=N)N)C(N)=O)nn4)cc3)cc2)nn1)C(N)=O	–	–	–	–	–	–	–	–	–	–	–	–	–	6.05 µg/mL (≈ 3.9 µM)	–
CN[C@H](CC(C)C)C(=O)N[C@H]1C(=O)N[C@@H](CC(N)=O)C(=O)N[C@H]2C(=O)N[C@H]3C(=O)N[C@H](C(=O)N[C@H](C(=O)O)c4cc(O)cc(O)c4-c4cc3ccc4O)[C@H](O)c3ccc(c(Cl)c3)Oc3cc2cc(c3O[C@@H]2O[C@H](CO)[C@@H](O)[C@H](O)[C@H]2O[C@H]2C[C@](C)(N)[C@H](O)[C@H](C)O2)Oc2ccc(cc2Cl)[C@H]1O [VANCOMYCIN]	–	> 64 µg/mL	–	–	–	–	–	> 64 µg/mL	–	–	–	–	> 64 µg/mL	–	Activity (Staphylococcus aureus [20]): Active
CC(C)(C)c1cc(C(c2ccc(F)cc2)c2ccc(F)cc2)c(NC(=O)c2cccc(C(=O)O)c2)c(C(c2ccc(F)cc2)c2ccc(F)cc2)c1	2 µg/mL (≈ 2.85 µM)	2 µg/mL (≈ 2.85 µM)	2 µg/mL (≈ 2.85 µM)	2 µg/mL (≈ 2.85 µM)	2 µg/mL (≈ 2.85 µM)	2 µg/mL (≈ 2.85 µM)	2 µg/mL (≈ 2.85 µM)	2 µg/mL (≈ 2.85 µM)	2 µg/mL (≈ 2.85 µM)	2 µg/mL (≈ 2.85 µM)	2 µg/mL (≈ 2.85 µM)	2 µg/mL (≈ 2.85 µM)	2 µg/mL (≈ 2.85 µM)	–	MIC (Acinetobacter baumannii): > 64 µg/mL; inhibition (INH) (Staphylococcus aureus [2]): >50%; inhibition (INH) (Staphylococcus aureus [8]): 95%; MIC (Enterococcus faecalis): 1 µg/mL (≈ 1.42 µM); MIC (Staphylococcus aureus [10]): 2 µg/mL (≈ 2.85 µM); MIC (Klebsiella pneumoniae): > 64 µg/mL; MIC (Bacillus subtilis): 1 µg/mL (≈ 1.42 µM); MIC (Escherichia coli): > 64 µg/mL; MIC (Pseudomonas aeruginosa): > 64 µg/mL; inhibition (Staphylococcus aureus [16]): Active; inhibition (INH) (Staphylococcus aureus [18]): 95%
NCCCC[C@H](N)C(=O)N[C@@H](Cc1ccccc1)CN(CC(=O)NCC12CC3CC(CC(C3)C1)C2)C(=O)CC12CC3CC(CC(C3)C1)C2	–	–	–	–	–	–	–	–	–	–	–	–	–	1.56 µg/mL (≈ 2.36 µM)	–
COc1ccc2c(c[n+]3c4c2ccc2c5c(cc(c24)CC3)OCO5)c1NC(=O)c1csnn1.[Cl-]	–	–	–	–	–	–	–	–	–	–	–	–	–	2 µg/mL	–
O=C(Nc1ccccc1)c1cc(Cl)ccc1O	–	–	–	–	–	–	–	–	–	–	–	–	–	≥ 2.47 µg/mL	–
C#CCOc1ccccc1-c1ccc(-c2ccc(-c3ccccc3OCc3cn(CC(=O)N[C@@H](CCCNC(=N)N)C(=O)N[C@@H](CCCNC(=N)N)C(=O)N[C@@H](CCCNC(=N)N)C(N)=O)nn3)cc2)cc1	–	–	–	–	–	–	–	–	–	–	–	–	–	3.83 µg/mL (≈ 3.9 µM)	–
C[C@H]1COc2c(N3CCN(C)CC3)c(F)cc3c(=O)c(C(=O)O)cn1c23 [LEVOFLOXACIN ANHYDROUS]	8 µg/mL (≈ 22.1 µM)	> 64 µg/mL	0.25 µg/mL (≈ 0.692 µM)	16 µg/mL (≈ 44.3 µM)	0.25 µg/mL (≈ 0.692 µM)	16 µg/mL (≈ 44.3 µM)	32 µg/mL (≈ 88.6 µM)	32 µg/mL (≈ 88.6 µM)	0.125 µg/mL (≈ 0.346 µM)	32 µg/mL (≈ 88.6 µM)	4 µg/mL (≈ 11.1 µM)	0.25 µg/mL (≈ 0.692 µM)	32 µg/mL (≈ 88.6 µM)	–	–
CN(C)c1ccc(O)c2c1C[C@H]1C[C@H]3[C@H](N(C)C)C(O)=C(C(N)=O)C(=O)[C@@]3(O)C(O)=C1C2=O [MINOCYCLINE]	32 µg/mL (≈ 69.9 µM)	> 64 µg/mL	8 µg/mL (≈ 17.5 µM)	> 64 µg/mL	0.25 µg/mL (≈ 0.546 µM)	64 µg/mL (≈ 140 µM)	> 64 µg/mL	> 64 µg/mL	2 µg/mL (≈ 4.37 µM)	64 µg/mL (≈ 140 µM)	8 µg/mL (≈ 17.5 µM)	> 64 µg/mL	16 µg/mL (≈ 35 µM)	–	–
